Legend:
Cdk10/CycQ [1] = molecular target: T1, Cdk10/CycQ (Homo sapiens, UniProt Q15131); assay: Radiometric kinase assay, inhibition of Cdk10/CycQ (c-MYC substrate); assay type: biochemical; details: for Times more potent towards Cdk9 than Cdk10: ratio of IC50 values Cdk10 vs Cdk9; for Cross reactivity with Cdk10 (effect of inhibitor on Cdk10): at conditions that result in full inhibition of their primary target, supplementary figure S3
T1 construct: We expressed the human full-length Cdk10/CycQ complex in Sf9 insect cells; MBP (followed by TEV site) (N, cleaved yes); made in house; host or cells: Sf9 insect cells (baculovirus); c-MYC substrate from E. coli BL21 pLysS
Method: Figure 3. […] (a) Chemical structures of the inhibitors tested against Cdk10/CycQ.
Kinase assays with recombinant proteins were performed in kinase assay buffer (50 mM Hepes pH7.6, 34 mM KCl, 7 mM MgCl2, 5 mM β-Glycerophosphate, 2.5 mM DTE). If not indicated otherwise, reactions contained 0.2 µM kinase, were started by the addition of ATP to 1 mM final concentration and incubated at 30°C in a shaking incubator.
For quantitative analysis, radioactive kinase assays were performed. Reactions were done in a total volume of 15 µl per sample. If not indicated otherwise, reactions contained 0.2 µM kinase, were started by addition of ATP to 1 mM containing 0.34 µCi γ[^32P] (Perkin Elmer) and incubated at 30°C in a shaking incubator. Reactions were stopped by adding EDTA to a final concentration of 50 mM. Samples were spotted onto Amersham Protran nitrocellulose membrane (GE Healthcare) filter sheets. Filters were washed three times for 5 min with PBS to remove free, non-reacted ATP. Samples were transferred to 4 ml liquid scintillation vials and immersed in 2 ml liquid scintillator (UltimaGold). Radioactivity was counted in a Beckman Liquid Scintillation Counter (Beckman-Coulter) for 1 min.
All compounds were solved at a stock concentration of 10 mM in DMSO and further pre-diluted in DMSO for dose–response measurement. For IC50 determination radioactive kinase assays were run as described above in presence of increasing concentration of inhibitor. For analysis, the data were normalized to the DMSO solvent control and the activity plotted against the inhibitor concentration. IC50 values were determined from duplicate measurements by sigmoidal curve fitting with a variable slope using GraphPadPrism, v.

Cdk9 = molecular target: T2, Cdk9 (Homo sapiens, UniProt P50750); assay: Radiometric kinase assay, inhibition of Cdk9 (c-MYC substrate); assay type: biochemical; details: 200 nM kinase, 1 mM ATP, 5 mM Mg2+, 50 µM c-MYC (17-167) as substrate
T2 construct: His; made in house; host or cells: Cdk9 in Sf9 insect cells; CycT1 (1-272) in E. coli

Cdk10/CycQ [2] = molecular target: T1, Cdk10/CycQ; assay: Radiometric kinase assay, inhibition of Cdk10/CycQ (c-MYC substrate); assay type: biochemical; details: 200 nM kinase, 1 mM ATP, 5 mM Mg2+, 50 µM c-MYC (17-167) as substrate
Cdk10 [3] = tested on: Cdk10; set-up: method as in PMID 29251720; details: MOLT4 lysates; cited from earlier work
Cdk10 [4] = tested on: Cdk10; set-up: method as in PMID 29251720; details: cited from earlier work

T1 sequence (Q15131 whole entry): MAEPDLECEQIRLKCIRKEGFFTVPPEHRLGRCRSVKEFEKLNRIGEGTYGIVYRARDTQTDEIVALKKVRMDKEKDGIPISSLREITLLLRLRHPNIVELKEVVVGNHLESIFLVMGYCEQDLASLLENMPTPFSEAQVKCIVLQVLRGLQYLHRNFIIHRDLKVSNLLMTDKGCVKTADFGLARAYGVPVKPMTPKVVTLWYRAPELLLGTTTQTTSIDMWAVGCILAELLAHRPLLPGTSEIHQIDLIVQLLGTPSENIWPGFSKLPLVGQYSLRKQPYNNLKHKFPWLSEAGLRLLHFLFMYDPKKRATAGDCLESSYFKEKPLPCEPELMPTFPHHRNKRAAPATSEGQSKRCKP
T1 sequence (Q8N1B3 whole entry partner): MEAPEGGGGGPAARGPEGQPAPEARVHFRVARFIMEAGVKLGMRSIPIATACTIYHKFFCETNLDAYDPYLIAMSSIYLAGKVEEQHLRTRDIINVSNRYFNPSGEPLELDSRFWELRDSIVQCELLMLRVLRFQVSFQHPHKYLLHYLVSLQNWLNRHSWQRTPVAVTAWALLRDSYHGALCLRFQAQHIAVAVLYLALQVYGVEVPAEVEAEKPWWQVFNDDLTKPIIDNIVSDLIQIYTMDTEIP
T2 sequence (P50750 whole entry, species assumed): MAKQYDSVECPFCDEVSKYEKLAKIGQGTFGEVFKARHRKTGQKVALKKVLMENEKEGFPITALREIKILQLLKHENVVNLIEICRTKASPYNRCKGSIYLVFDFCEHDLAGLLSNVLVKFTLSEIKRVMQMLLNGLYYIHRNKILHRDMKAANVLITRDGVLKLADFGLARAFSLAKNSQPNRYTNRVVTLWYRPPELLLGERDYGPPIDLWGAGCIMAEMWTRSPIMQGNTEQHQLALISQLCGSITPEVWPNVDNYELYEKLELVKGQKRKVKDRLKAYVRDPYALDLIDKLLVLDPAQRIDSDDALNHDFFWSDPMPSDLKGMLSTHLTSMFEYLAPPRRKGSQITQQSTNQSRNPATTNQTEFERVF
T2 sequence (O60563 1-272 partner limits assumed, species assumed): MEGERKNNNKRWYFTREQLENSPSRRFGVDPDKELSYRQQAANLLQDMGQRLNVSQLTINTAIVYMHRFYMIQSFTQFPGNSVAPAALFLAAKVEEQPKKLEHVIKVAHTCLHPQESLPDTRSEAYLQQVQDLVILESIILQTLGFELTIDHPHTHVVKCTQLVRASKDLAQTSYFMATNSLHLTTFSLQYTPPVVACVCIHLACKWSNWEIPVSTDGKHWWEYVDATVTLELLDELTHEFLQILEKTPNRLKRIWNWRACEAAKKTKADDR

| Structure (SMILES) | Times more potent towards Cdk9 than Cdk10 (Cdk10/CycQ [1]) | Cross reactivity with Cdk10 (effect of inhibitor on Cdk10) (Cdk10/CycQ [1]) | other results |
| --- | --- | --- | --- |
| COCC(C)NC1CCC(Nc2cc(-c3cccc(NCC4(C#N)CCOCC4)n3)c(Cl)cn2)CC1 (centres unmarked) [NVP-2] | at least 5 times |  | IC50 (Cdk9): 0.058 µM; IC50 (Cdk10/CycQ [2]): 1040 nM; Binding to Cdk10 (Cdk10 [3]): identified binding to Cdk10 |
| CC(C)(C)c1cnc(CSc2cnc(NC(=O)C3CCNCC3)s2)o1 [SNS-032] | at least 5 times |  | Binding to Cdk10 (Cdk10 [3]): identified binding to Cdk10 |
| CC(=O)c1c(C)c2cnc(Nc3ccc(N4CCNCC4)cn3)nc2n(C2CCCC2)c1=O [palbociclib] |  | did not observe any considerable effect |  |
| C=CC(=O)Nc1ccc(C(=O)Nc2[nH]nc3c2CN(C(=O)N[C@H](CN(C)C)c2ccccc2)C3(C)C)cc1 [YKL-5-124] |  | did not observe any considerable effect |  |
| CN(C)C/C=C/C(=O)Nc1ccc(C(=O)N2CCC[C@@H](Nc3ncc(Cl)c(-c4c[nH]c5ccccc45)n3)C2)cc1 [THZ-531] |  | did not observe any considerable effect |  |
| CCN1CCN(Cc2ccc(Nc3ncc(F)c(-c4cc(F)c5nc(C)n(C(C)C)c5c4)n3)nc2)CC1 [abemaciclib] |  | did not observe any considerable effect |  |
| CCc1cnn2c(NCc3ccc[n+]([O-])c3)cc(N3CCCC[C@H]3CCO)nc12 [dinaciclib] | at least 5 times |  | IC50 (Cdk10/CycQ [2]): 298 nM |
| CN(C)C/C=C/C(=O)Nc1ccc(C(=O)Nc2cccc(Nc3ncc(Cl)c(-c4c[nH]c5ccccc45)n3)c2)cc1 [THZ-1] |  | did not observe any considerable effect |  |
| CC(C)(C)c1cnc(CSc2cnc(NC(=O)C3CCN(CC(=O)NCCOCCOCCOCCNc4cccc5c4C(=O)N(C4CCC(=O)NC4=O)C5=O)CC3)s2)o1 (centres unmarked) [THAL-SNS-032] |  |  | Degradation of Cdk10 (Cdk10 [4]): degrades Cdk10 only after a longer incubation period |
| Cc1cc(O)c(-c2ccc([C@@H](C)CN(C)C)cc2)c2c1[nH]c(=O)c1sccc12 [OTS964] |  |  | IC50 (Cdk9): 138 µM; IC50 (Cdk10/CycQ [2]): 5370 nM |
| CN1CC[C@H](c2c(O)cc(O)c3c(=O)cc(-c4ccccc4Cl)oc23)[C@H](O)C1 [flavopiridol] | at least 5 times |  |  |

Reference: paper PMC8924752, “Functional characterization of the human Cdk10/Cyclin Q complex” (Open Biology, 2022)
